Activity calls are given as the source filed them. The calls are words filed in the database; no cut-off is given here.
Key:
Type in all cases: functional
Bacillus subtilis [1] = experiment: Antimicrobial activity against Bacillus subtilis assessed as zone of inhibition at 50 ug/well after 24 hrs by agar well diffusion method; details: for zone of inhibition at 50 µg/disc: read-out: DIZ
Penicillium chrysogenum [2] = experiment: Antifungal activity against Penicillium chrysogenum assessed as zone of inhibition at 75 ug/well after 48 hrs by agar well diffusion method; details: for zone of inhibition at 75 µg/disc: read-out: DIZ
Pseudomonas aeruginosa [3] = experiment: Antimicrobial activity against Pseudomonas aeruginosa assessed as zone of inhibition at 50 ug/well after 24 hrs by agar well diffusion method
Staphylococcus aureus [4] = experiment: Antimicrobial activity against Staphylococcus aureus assessed as zone of inhibition at 100 ug/well after 24 hrs by agar well diffusion method; details: for zone of inhibition at 100 µg/disc: read-out: DIZ
Penicillium chrysogenum [5] = experiment: Antifungal activity against Penicillium chrysogenum assessed as zone of inhibition at 100 ug/well after 48 hrs by agar well diffusion method; details: for zone of inhibition at 100 µg/disc: read-out: DIZ
Staphylococcus aureus [6] = experiment: Antimicrobial activity against Staphylococcus aureus assessed as zone of inhibition at 75 ug/well after 24 hrs by agar well diffusion method; details: for zone of inhibition at 75 µg/disc: read-out: DIZ
Klebsiella pneumoniae [7] = experiment: Antimicrobial activity against Klebsiella pneumoniae assessed as zone of inhibition at 100 ug/well after 24 hrs by agar well diffusion method; details: for zone of inhibition at 100 µg/disc: read-out: DIZ
Aspergillus niger [8] = experiment: Antifungal activity against Aspergillus niger assessed as zone of inhibition at 100 ug/well after 48 hrs by agar well diffusion method; details: for zone of inhibition at 100 µg/disc: read-out: DIZ
Aspergillus niger [9] = experiment: Antifungal activity against Aspergillus niger assessed as zone of inhibition at 50 ug/well after 48 hrs by agar well diffusion method; details: for zone of inhibition at 50 µg/disc: read-out: DIZ
Aspergillus niger [10] = experiment: Antifungal activity against Aspergillus niger assessed as zone of inhibition at 75 ug/well after 48 hrs by agar well diffusion method; details: for zone of inhibition at 75 µg/disc: read-out: DIZ
Bacillus subtilis [11] = experiment: Antimicrobial activity against Bacillus subtilis assessed as zone of inhibition at 100 ug/well after 24 hrs by agar well diffusion method; details: for zone of inhibition at 100 µg/disc: read-out: DIZ
Penicillium chrysogenum [12] = experiment: Antifungal activity against Penicillium chrysogenum assessed as zone of inhibition at 50 ug/well after 48 hrs by agar well diffusion method
Bacillus subtilis [13] = experiment: Antimicrobial activity against Bacillus subtilis assessed as zone of inhibition at 75 ug/well after 24 hrs by agar well diffusion method; details: for zone of inhibition at 75 µg/disc: read-out: DIZ
Klebsiella pneumoniae [14] = experiment: Antimicrobial activity against Klebsiella pneumoniae assessed as zone of inhibition at 50 ug/well after 24 hrs by agar well diffusion method; details: for zone of inhibition at 50 µg/disc: read-out: DIZ
Staphylococcus aureus [15] = experiment: Antimicrobial activity against Staphylococcus aureus assessed as zone of inhibition at 50 ug/well after 24 hrs by agar well diffusion method; details: for zone of inhibition at 50 µg/disc: read-out: DIZ
Pseudomonas aeruginosa [16] = experiment: Antimicrobial activity against Pseudomonas aeruginosa assessed as zone of inhibition at 100 ug/well after 24 hrs by agar well diffusion method
Pseudomonas aeruginosa [17] = experiment: Antimicrobial activity against Pseudomonas aeruginosa assessed as zone of inhibition at 75 ug/well after 24 hrs by agar well diffusion method
Klebsiella pneumoniae [18] = experiment: Antimicrobial activity against Klebsiella pneumoniae assessed as zone of inhibition at 75 ug/well after 24 hrs by agar well diffusion method; details: for zone of inhibition at 75 µg/disc: read-out: DIZ

Row | SMILES | zone of inhibition at 50 µg/disc (Bacillus subtilis [1]) [mm] | zone of inhibition at 75 µg/disc (Penicillium chrysogenum [2]) [mm] | zone of inhibition at 100 µg/disc (Staphylococcus aureus [4]) [mm] | zone of inhibition at 100 µg/disc (Penicillium chrysogenum [5]) [mm] | zone of inhibition at 75 µg/disc (Staphylococcus aureus [6]) [mm] | zone of inhibition at 100 µg/disc (Klebsiella pneumoniae [7]) [mm] | zone of inhibition at 100 µg/disc (Aspergillus niger [8]) [mm] | zone of inhibition at 75 µg/disc (Aspergillus niger [10]) [mm] | zone of inhibition at 100 µg/disc (Bacillus subtilis [11]) [mm] | zone of inhibition at 75 µg/disc (Bacillus subtilis [13]) [mm] | zone of inhibition at 50 µg/disc (Klebsiella pneumoniae [14]) [mm] | zone of inhibition at 75 µg/disc (Klebsiella pneumoniae [18]) [mm] | diameter of the inhibition zone (DIZ) (Penicillium chrysogenum [2]) | diameter of the inhibition zone (DIZ) (Pseudomonas aeruginosa [3]) | diameter of the inhibition zone (DIZ) (Staphylococcus aureus [6]) | diameter of the inhibition zone (DIZ) (Aspergillus niger [9]) | diameter of the inhibition zone (DIZ) (Penicillium chrysogenum [12]) | diameter of the inhibition zone (DIZ) (Staphylococcus aureus [15]) | diameter of the inhibition zone (DIZ) (Pseudomonas aeruginosa [16]) | diameter of the inhibition zone (DIZ) (Pseudomonas aeruginosa [17]) | also measured
1 | O=C(NS(=O)(=O)/C=C/c1ccccc1)c1ccc(Cl)s1 | 22 | 13 | 21 | 17 | 19 | 25 | 21 | 17 | 27 | 24 | 19 | 22 | – | – | – | – | – | – | – | – | zone of inhibition at 50 µg/disc (Pseudomonas aeruginosa [3]; read-out: DIZ): 12 mm; zone of inhibition at 50 µg/disc (Aspergillus niger [9]): 15 mm; zone of inhibition at 50 µg/disc (Penicillium chrysogenum [12]; read-out: DIZ): 10 mm; zone of inhibition at 50 µg/disc (Staphylococcus aureus [15]): 16 mm; zone of inhibition at 100 µg/disc (Pseudomonas aeruginosa [16]; read-out: DIZ): 17 mm; zone of inhibition at 75 µg/disc (Pseudomonas aeruginosa [17]; read-out: DIZ): 14 mm
2 | Cc1ccc(C2ON=C(c3ccccc3)C2S(=O)(=O)NC(=O)c2ccc(Cl)s2)cc1 (stereo not given) | – | – | – | – | – | – | – | – | – | – | – | – | inactive | inactive | inactive | inactive | inactive | inactive | inactive | inactive | diameter of the inhibition zone (DIZ) (Bacillus subtilis [1]): inactive; diameter of the inhibition zone (DIZ) (Staphylococcus aureus [4]): inactive; diameter of the inhibition zone (DIZ) (Penicillium chrysogenum [5]): inactive; diameter of the inhibition zone (DIZ) (Klebsiella pneumoniae [7]): inactive; diameter of the inhibition zone (DIZ) (Aspergillus niger [8]): inactive; diameter of the inhibition zone (DIZ) (Aspergillus niger [10]): inactive; diameter of the inhibition zone (DIZ) (Bacillus subtilis [11]): inactive; diameter of the inhibition zone (DIZ) (Bacillus subtilis [13]): inactive; diameter of the inhibition zone (DIZ) (Klebsiella pneumoniae [14]): inactive; diameter of the inhibition zone (DIZ) (Klebsiella pneumoniae [18]): inactive
3 | O=C(NS(=O)(=O)C1C(c2ccccc2)=NOC1c1ccccc1)c1ccc(Cl)s1 (stereo not given) | 10 | – | 8 | 7 | – | 12 | 12 | 9 | 16 | 12 | 8 | 10 | inactive | inactive | inactive | inactive | inactive | inactive | inactive | inactive | –
4 | O=C(NS(=O)(=O)C1C(c2ccccc2)=NOC1c1ccc([N+](=O)[O-])cc1)c1ccc(Cl)s1 (stereo not given) | 16 | 9 | 16 | 12 | 14 | 13 | 15 | 12 | 21 | 19 | 9 | 11 | – | inactive | – | – | inactive | – | inactive | inactive | zone of inhibition at 50 µg/disc (Aspergillus niger [9]): 9 mm; zone of inhibition at 50 µg/disc (Staphylococcus aureus [15]): 13 mm
5 | Cc1ccc(C2ON=C(c3ccccc3)C2S(=O)(=O)NC(=O)c2cccs2)cc1 (stereo not given) | – | – | – | – | – | – | – | – | – | – | – | – | inactive | inactive | inactive | inactive | inactive | inactive | inactive | inactive | diameter of the inhibition zone (DIZ) (Bacillus subtilis [1]): inactive; diameter of the inhibition zone (DIZ) (Staphylococcus aureus [4]): inactive; diameter of the inhibition zone (DIZ) (Penicillium chrysogenum [5]): inactive; diameter of the inhibition zone (DIZ) (Klebsiella pneumoniae [7]): inactive; diameter of the inhibition zone (DIZ) (Aspergillus niger [8]): inactive; diameter of the inhibition zone (DIZ) (Aspergillus niger [10]): inactive; diameter of the inhibition zone (DIZ) (Bacillus subtilis [11]): inactive; diameter of the inhibition zone (DIZ) (Bacillus subtilis [13]): inactive; diameter of the inhibition zone (DIZ) (Klebsiella pneumoniae [14]): inactive; diameter of the inhibition zone (DIZ) (Klebsiella pneumoniae [18]): inactive
